Data as given in US20230263808A1 (UNIVERSITY OF FLORIDA RESEARCH FOUNDATION, INCORPORATED, priority 2020, published 2023).
“Also recorded” adds a separate entry of the source.

Columns and labels:
[1] = Body weight change after an overnight fast; assay type: in vivo, C57BL/6 male mice; settings: 10 mg/kg Dex or SR16024, 50 mg/kg SR11466, single dose
Text: A) The effects of all tested compounds on IL-1β-induced IL-6 production (x-axes) versus GR interaction with the indicated peptides. B-C) The effects of all tested compounds on the indicated GC-regulated phenotypes (x-axes) versus GR interaction with the CHD9_1023 and CENPR_1 peptides (y-axes). D-F) COC plots. Each point represents the Pearson correlation coefficient, r, between a distinct gene expression or GR-peptide interaction assay with assays indicated on the x and y axes. G) The effects of all tested compounds on IL-1β-induced IL-6 production (y-axes) versus insulin-induced protein synthesis. […] IL-β-induced IL-6 production by A549 cells treated with the indicated compounds was compared by AlphaLISA. […] Mice in panel K were subjected to a lactate-tolerance test (LTT).
We were also interested in whether the compounds would show dissociation between Glut4 translocation in skeletal muscle and gluconeogenesis in the liver, but enhanced glucose production is typically studied after weeks or months of GC treatment. However, we reasoned that an overnight fast should enable detection of effects after a single dose. […] Thus, profiling effects of GCs in the physiological context of nutrient deprivation allowed the discovery of two new types of glucocorticoids with improved profiles in skeletal muscle.

C2C12 myoblasts = test: Mitochondrial potential, high-content imaging with MitoTracker dye; assay type: cell-based, mouse
Experimental: A) C2C12 myotubes were assayed for chymotrypsin-like proteasomal activity. […] C) Quantitation of the ICW in panel B. D) ICW for surface expression of Glut4 on L6 myotubes. E) ICW for insulin-induced incorporation of puromycin into C2C12 myotube surface proteins. F-G) High-content imaging and analysis of C2C12 myoblasts stained with a Mitotracker dye. H) Assay reproducibility from screening 22 compounds on two separate occasions. The Pearson correlation coefficient, r, and its associated p-value is indicated.
A) Each dot represents the effects of a compound in the indicated assays at 10 uM. N=4-6 from two different experiments. […] C) SR11466 is efficacious at inhibiting IL-6 secretion from A549 cells. C-E). […] D) Mitochondrial activity was measured in myoblasts using high content imaging with mitotracker dye after 24 treatment. New amino acid incorporation was measured with LICOR in cell western for puromycin (SunSet assay). E) top, MMTV-luciferase reporter data. N=3, mean+SEM. Bottom, Mineralization of primary human OBs was assayed after two weeks of differentiation from MSC and two weeks of mineralization. N=4, mean+SEM, 2-way ANOVA.
Physiologically, the effects of GCs on protein balance and Glut4 translocation vary in vivo depending upon the stressor. For example, GCs mediate atrophy in response to fasting but not exercise. […] To assess protein degradation, we measured chymotrypsin-like proteasomal activity (FIG. 2, A). The activating phosphorylation of AKT at Thr308 (pAKT) was measured using a LI-COR In-Cell Western assay (FIG. 2, B and C). The rate-limiting step in insulin-mediated glucose uptake is the translocation of the glucose transporter, Glut4, to the surface membrane, which we also measured by In-Cell Western without permeabilizing the myotubes (FIG. 2, D). Surface Sensing of Translation (SUnSET) (Schmidt et al., Nat Methods 6, 275-277, 2009) assay was used to measure protein synthesis by In-Cell Western, following treatment of myotubes with a low dose of puromycin, which incorporates into translating proteins, but at a low enough level to provide a readout for global protein synthesis (FIG. 2, E). Lastly, we developed a high-content imaging assay in myoblasts stained with a MitoTracker dye, so that individual mitochondrial networks could be visualized with adequate resolution to quantitate area, segmentation, branching, and fluorescence intensity which is a measure of mitochondrial membrane potential (ψm).

LPS-induced TNFα = test: LPS-induced plasma TNFα levels in mice; assay type: in vivo, C57BL/6 male mice; settings: mice pretreated with ligand
Text: (§1) A) Correlation of correlation (COC) plots where each point represents the Pearson correlation coefficient, r, between a distinct gene expression or GR-peptide interaction assay with assays indicated on the x and y axes. B) The effects of all tested compounds on IL-1β-induced secretion of IL-6 (y axes) and GC-regulated phenotypes indicated on the x axes. C) The effects of all tested compounds on IL-1β-induced secretion of IL-6 (y axis) and bone mineralization (x axis). D) IL-1β-induced IL-6 production by A549 cells treated with 10 μM of the indicated compounds was compared by AlphaLISA. E-H) Myoblasts were assayed as described in FIG. 8. I) Representative myoblasts imaged during the mitochondrial potential assay. J) Plasma TNFα levels of C57BL/6 male mice treated pretreated with the indicated ligands. K) Changes in lean mass of mice in panel J were determined by whole-body NMR after an additional 18 h LPS treatment. Data shown are mean+SEM.

[2] = Pharmacokinetics for in vivo dosing
[3] = Loss of lean mass after a larger dose of LPS (whole-body NMR); assay type: in vivo, C57BL/6 male mice; settings: additional 18 h LPS treatment
Text: as §1

GILZ mRNA = test: GILZ gene expression; assay type: cell-based

Row | SMILES | preserving body mass after overnight fast [1] | effect on mitochondrial activity / potential (C2C12 myoblasts) | LPS-induced TNFα levels in the blood (LPS-induced TNFα) | pharmacokinetics for in vivo dosing [2] | loss of lean mass following a larger dose of LPS [3] | GILZ gene expression (GILZ mRNA)
1 | C=CCOC1CC2(C)C(CCC2(O)C#CC)C2CCc3cc(C(=O)Nc4cccnc4C)ccc3C12 (stereo not drawn) [SR11466] | significantly better than Dex | enhanced | strongly suppressed | favorable pharmacokinetics | significantly better than Dex | 
2 | CC#CC1(O)CCC2C3CCc4cc(C(=O)Nc5cccnc5C)ccc4C3C(OCc3ccccc3Cl)CC21C (stereo not drawn) [SR16024] | slight weight sparing effect | enhanced; also recorded: doubling; also recorded: anabolic profile in mitochondria | not inhibitory | favorable pharmacokinetics | protective | not activating GILZ
3 | CC#CC1(O)CCC2C3CCc4cc(C(=O)Nc5cccnc5C)ccc4C3C(OCc3ccc(Cl)cc3)CC21C (stereo not drawn) [SR16025] |  |  |  |  |  | not activating GILZ
